Reference: patent publication US5298494A, “Monosaccharides having anti-proliferation and anti-inflammatory activity, compositions and uses thereof” (Greenwich Pharmaceuticals Incorporated, priority 1993, dated 1994)

Legend:
[1] = system: T cell proliferation in mouse spleen cell mixed lymphocyte cultures; assay: Mixed Lymphocyte Reaction (MLR) assay; assay type: cell-based, mouse (Balb/c responder, C57B1/6 stimulator); conditions: for inhibition at 3 µM / inhibition at 10 µM / inhibition at 30 µM / inhibition at 100 µM / inhibition at 300 µM: Mus musculus, Lymphocyte, read-out: % Change From Control, MLR
Procedure, shortened: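 Balb/c responder spleen cells (2.5×10^5) co-cultured with mitomycin C-treated C57Bl/6 stimulators (5×10^5) for 5 days at 37 C with compound dilutions of 3–300 uM or DMSO. Proliferation read by MTT (OD 570-650 nm). Allogeneic minus syngeneic means were expressed as % change from vehicle control.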

[2] = system: LTB4 production by BUD-8 skin cell fibroblasts; assay: LTB4 production by BUD-8 skin cell fibroblasts (radioimmunoassay); assay type: cell-based, human
Description: (§1) The effect of the compound of the present invention on the proliferative capacity of human BUD-8 skin fibroblasts was measured with the use of a ^3 H-thymidine incorporation assay using culture conditions which were similar to those used for a Con-A blastogenesis assay, described previously. Cultured skin cells were detached from the surface of tissue culture flasks mechanically with a Teflon scraper. The cells were washed, resuspended in incubation medium and the viabilities were determined. These cells were then plated in triplicate at a density of 2×10^3 cells/0.1 ml/microtiter well for the proliferation assay and a density of 1×10^4 cells/0.1 ml/microtiter well for the assays to quantitate PGE2 and LTB4. To these cells was added incubation medium containing indomethacin to inhibit prostaglandin production, or nordihydroguaiaretic acid (NDGA) to inhibit leukotriene production (positive controls).
(§2) After 18 hours of culture, samples of the BUD-8 skin cell supernatants were collected from one set of microtiter plates and frozen until assayed for PGE2 or for LTB4 content using the radioimmunoassays described below.
Levels of LTB4 in aliquots of BUD-8 skin cell cultures supernatants were quantitated by radioimmunoassay (New England Nuclear). Briefly, into each polyproplyene tube were mixed 0.1 ml anti-LTB4, 0.1. ml ^3 H-LTB4 and 0.1 ml LTB4 standard or LTB4 containing sample. The BUD-8 skin cell culture supernatants were used directly in the radioimmunoassay. Tubes were refrigerated overnight. A charcoal solution (0.5 ml of 0.5% charcoal Norit A) was added and each tube was centrifuged. The radioactivity in the supernatant was then counted in a liquid scintillation counter.

[3] = system: PGE2 production by BUD-8 skin cell fibroblasts; assay: PGE2 production by BUD-8 skin cell fibroblasts (radioimmunoassay); assay type: cell-based, human
Description: as §1, §2
A radioinmunoassay (New England Nuclear) was used to quantitate PGE2 levels in BUD-8 skin cell culture supernatants. Briefly, into each polypropylene tube were mixed 0.1 ml anti-PGE2, 0.1 ml ^125 1-PGE2 and 0.1 ml PGE2 standard or PGE2 containing sample. The BUD-8 skin culture supernatants were diluted 1:2 prior to addition to the radioimmunoassay. Tubes were refrigerated overnight. A polyethylene glycol solution (16%, 6,000 m.w.) was then added to precipitate immune complexes and the radioactivity in the precipitate was counted in a gamma counter.

SMILES: CC1(C)OC2OC(C(O)COCCCc3ccccc3)C(O)C2O1 [IIIe, 1,2-O-Isopropylidene-6-O-3'-(phenylpropyl)-α-D-glucofuranose]
- Mean O.D. Allogenic ([1]; 3 um): 0.174 O.D.
- Mean O.D. Syngeneic ([1]; 3 um): 0.052 O.D.
- Mean O.D. Allogenic ([1]; 10 um): 0.122 O.D.
- Mean O.D. Syngeneic ([1]; 10 um): 0.081 O.D.
- Mean O.D. Allogenic ([1]; 30 um): 0.084 O.D.
- Mean O.D. Syngeneic ([1]; 30 um): 0.066 O.D.
- Mean O.D. Allogenic ([1]; 100 um): 0.034 O.D.
- Mean O.D. Syngeneic ([1]; 100 um): 0.024 O.D.
- Mean O.D. Allogenic ([1]; 300 um): 0.009 O.D.
- Mean O.D. Syngeneic ([1]; 300 um): 0.010 O.D.
- inhibition at 3 µM ([1]; 3 um): 19%
- inhibition at 10 µM ([1]; 10 um): 73%
- inhibition at 30 µM ([1]; 30 um): 88%
- inhibition at 100 µM ([1]; 100 um): 93%
- inhibition at 300 µM ([1]; 300 um): 101%

SMILES: CN1CCCC1CCNC[C@H]1OC(C)(C)O[C@@H]2[C@H]3OC(C)(C)O[C@H]3O[C@@H]21 (stereo partly shown) [IIIi]
- effect on MLR in words [1]: strong non dose dependent inhibition of T lymphocyte proliferation
- Mean O.D. Allogenic ([1]; 3 um): 0.128 O.D.
- Mean O.D. Syngeneic ([1]; 3 um): 0.090 O.D.
- Mean O.D. Allogenic ([1]; 10 um): 0.180 O.D.
- Mean O.D. Syngeneic ([1]; 10 um): 0.102 O.D.
- Mean O.D. Allogenic ([1]; 30 um): 0.165 O.D.
- Mean O.D. Syngeneic ([1]; 30 um): 0.078 O.D.
- Mean O.D. Allogenic ([1]; 100 um): 0.095 O.D.
- Mean O.D. Syngeneic ([1]; 100 um): 0.066 O.D.
- Mean O.D. Allogenic ([1]; 300 um): 0.019 O.D.
- Mean O.D. Syngeneic ([1]; 300 um): 0.030 O.D.
- inhibition at 3 µM ([1]; 3 um): 15%
- inhibition at 10 µM ([1]; 10 um): 48%
- inhibition at 30 µM ([1]; 30 um): 42%
- inhibition at 100 µM ([1]; 100 um): 81%
- inhibition at 300 µM ([1]; 300 um): 107%

SMILES: CCCCCCCOCCCO[C@@H]1[C@H]2OC(C)(C)O[C@H]2O[C@@H]1[C@H](O)CO [IIg]
- % Change From Control, MLR ([1]; Table X, 3 ugm): -61%
- % Change From Control, MLR ([1]; Table X, 10 ugm): -15%
- Mean O.D. Allogenic ([1]; Table X, 10 ugm): 0.197 O.D.
- Mean O.D. Syngeneic ([1]; Table X, 10 ugm): 0.070 O.D.
- % Change From Control, MLR ([1]; Table X, 30 ugm): -36%
- Mean O.D. Allogenic ([1]; Table X, 30 ugm): 0.171 O.D.
- Mean O.D. Syngeneic ([1]; Table X, 30 ugm): 0.075 O.D.
- % Change From Control, MLR ([1]; Table X, 100 ugm): -101%
- % Change From Control, MLR ([1]; Table X, 300 ugm): -97%
- strong non-dose dependent inhibition in MLR ([1]; several concentrations): greater than -50 % of control
- concentrations with significantly decreased LTB4 levels [2]: 1 to 100 µg/mL
- LTB4 in supernatant (Table XIII) ([2]; 1 ug/ml): 32.2 ± 1.9 pg LTB4 /1000 ul supernatant
- calculated LTB4 produced/10^5 BUD-8 cells ([2]; 1 ug/ml): 619 pg per 10^5 cells
- LTB4 in supernatant (Table XIII) ([2]; 10 ug/ml): 28.8 ± 1.4 pg LTB4 /1000 ul supernatant
- calculated LTB4 produced/10^5 BUD-8 cells ([2]; 10 ug/ml): 550 pg per 10^5 cells
- LTB4 in supernatant (Table XIII) ([2]; 25 ug/ml): 23.7 ± 0.5 pg LTB4 /1000 ul supernatant
- calculated LTB4 produced/10^5 BUD-8 cells ([2]; 25 ug/ml): 447 pg per 10^5 cells
- LTB4 in supernatant (Table XIII) ([2]; 100 ug/ml): 27.3 ± 2.6 pg LTB4 /1000 ul supernatant
- calculated LTB4 produced/10^5 BUD-8 cells ([2]; 100 ug/ml): 520 pg per 10^5 cells
- LTB4 in supernatant (Table XIII) ([2]; 300 ug/ml): 24.5 ± 2.8 pg LTB4 /1000 ul supernatant
- LTB4 in supernatant (Table XIII) ([2]; 750 ug/ml): 19.3 ± 1.9 pg LTB4 /1000 ul supernatant
- inhibition at 1 µg/mL ([2]; Homo sapiens, Fibroblast, 18 h, 1 ug/ml, read-out: % Effect on LTB4 production): 17%
- inhibition at 10 µg/mL ([2]; Homo sapiens, Fibroblast, 18 h, 10 ug/ml, read-out: % Effect on LTB4 production): 26%
- inhibition at 25 µg/mL ([2]; Homo sapiens, Fibroblast, 18 h, 25 ug/ml, read-out: % Effect on LTB4 production): 39%
- inhibition at 100 µg/mL ([2]; Homo sapiens, Fibroblast, 18 h, 100 ug/ml, read-out: % Effect on LTB4 production): 30%
- inhibition at 300 µg/mL ([2]; Homo sapiens, Fibroblast, 18 h, 300 ug/ml, read-out: % Effect on LTB4 production): 37%
- inhibition at 750 µg/mL ([2]; Homo sapiens, Fibroblast, 18 h, 750 ug/ml, read-out: % Effect on LTB4 production): 50%
- PGE2 in supernatant ([3]; 1 ug/ml): 5.2 ± 0.9 pg PGE2 /50 ul supernatant
- calculated PGE2 produced/10^5 BUD-8 cells ([3]; 1 ug/ml): 157 pg per 10^5 cells
- PGE2 in supernatant ([3]; 10 ug/ml): 5.6 ± 0.4 pg PGE2 /50 ul supernatant
- calculated PGE2 produced/10^5 BUD-8 cells ([3]; 10 ug/ml): 173 pg per 10^5 cells
- PGE2 in supernatant ([3]; 25 ug/ml): 4.1 ± 0.3 pg PGE2 /50 ul supernatant
- calculated PGE2 produced/10^5 BUD-8 cells ([3]; 25 ug/ml): 111 pg per 10^5 cells
- PGE2 in supernatant ([3]; 100 ug/ml): 11.0 ± 1.4 pg PGE2 /50 ul supernatant
- calculated PGE2 produced/10^5 BUD-8 cells ([3]; 100 ug/ml): 388 pg per 10^5 cells
- PGE2 in supernatant ([3]; 300 ug/ml): 19.6 ± 1.6 pg PGE2 /50 ul supernatant
- calculated PGE2 produced/10^5 BUD-8 cells ([3]; 300 ug/ml): 731 pg per 10^5 cells
- PGE2 in supernatant ([3]; 750 ug/ml): 7.3 ± 0.2 pg PGE2 /50 ul supernatant
- calculated PGE2 produced/10^5 BUD-8 cells ([3]; 750 ug/ml): 241 pg per 10^5 cells
- inhibition at 1 µg/mL ([3]; Homo sapiens, Fibroblast, 18 h, 1 ug/ml, read-out: % Effect on PGE2 production): 45%
- inhibition at 10 µg/mL ([3]; Homo sapiens, Fibroblast, 18 h, 10 ug/ml, read-out: % Effect on PGE2 production): 40%
- inhibition at 25 µg/mL ([3]; Homo sapiens, Fibroblast, 18 h, 25 ug/ml, read-out: % Effect on PGE2 production): 57%
- inhibition at 100 µg/mL ([3]; Homo sapiens, Fibroblast, 18 h, 100 ug/ml, read-out: % Effect on PGE2 production): -17%
- inhibition at 300 µg/mL ([3]; Homo sapiens, Fibroblast, 18 h, 300 ug/ml, read-out: % Effect on PGE2 production): -108%
- inhibition at 750 µg/mL ([3]; Homo sapiens, Fibroblast, 18 h, 750 ug/ml, read-out: % Effect on PGE2 production): 22%

SMILES: CCCCCCCOC[C@H]1O[C@@]2(OC)COC(C)(C)O[C@H]2[C@@H]1O [Ia, methyl 1,3-O-isopropylidene-6-O-heptyl-α-D-fructofuranoside]
- Mean O.D. Allogenic ([1]; 3 um): 0.375 O.D.
- Mean O.D. Syngeneic ([1]; 3 um): 0.193 O.D.
- Mean O.D. Allogenic ([1]; 10 um): 0.361 O.D.
- Mean O.D. Syngeneic ([1]; 10 um): 0.175 O.D.
- Mean O.D. Allogenic ([1]; 30 um): 0.334 O.D.
- Mean O.D. Syngeneic ([1]; 30 um): 0.167 O.D.
- Mean O.D. Allogenic ([1]; 100 um): 0.429 O.D.
- Mean O.D. Syngeneic ([1]; 100 um): 0.192 O.D.
- Mean O.D. Allogenic ([1]; 300 um): 0.162 O.D.
- Mean O.D. Syngeneic ([1]; 300 um): 0.107 O.D.
- inhibition at 3 µM ([1]; 3 um): 5%
- inhibition at 10 µM ([1]; 10 um): 3%
- inhibition at 30 µM ([1]; 30 um): 13%
- inhibition at 100 µM ([1]; 100 um): -23%
- inhibition at 300 µM ([1]; 300 um): 71%

SMILES: CCCCC/C=C/COC[C@H]1O[C@@]2(OC)COC(C)(C)O[C@H]2[C@@H]1OC/C=C/CCCCC [Ie, methyl 1,3-O-isopropylidene-4,6-di-O-(trans,2-octenyl)-α-D-fructofuranoside]
- Mean O.D. Allogenic ([1]; 3 um): 0.341 O.D.
- Mean O.D. Syngeneic ([1]; 3 um): 0.133 O.D.
- Mean O.D. Allogenic ([1]; 10 um): 0.318 O.D.
- Mean O.D. Syngeneic ([1]; 10 um): 0.130 O.D.
- Mean O.D. Allogenic ([1]; 30 um): 0.266 O.D.
- Mean O.D. Syngeneic ([1]; 30 um): 0.178 O.D.
- Mean O.D. Allogenic ([1]; 100 um): 0.216 O.D.
- Mean O.D. Syngeneic ([1]; 100 um): 0.146 O.D.
- Mean O.D. Allogenic ([1]; 300 um): 0.152 O.D.
- Mean O.D. Syngeneic ([1]; 300 um): 0.082 O.D.
- inhibition at 3 µM ([1]; 3 um): -8%
- inhibition at 10 µM ([1]; 10 um): 2%
- inhibition at 30 µM ([1]; 30 um): 54%
- inhibition at 100 µM ([1]; 100 um): 64%
- inhibition at 300 µM ([1]; 300 um): 64%
